# Source: US11802111B2, “Cyclobutyl amide monoacylglycerol lipase modulators” (Janssen Pharmaceutica NV, priority 2020, dated 2023)
# Target: human MGL from HeLa cells (Homo sapiens (Human), UniProt Q99685)
# Assay: MGL in vitro activity assay ([glycerol-1,3-3H]-oleoyl glycerol hydrolysis, activated carbon filtration)
# Format: biochemical
# Conditions: 300 nM [Glycerol-1,3-3H]-oleoyl glycerol, one hour
# In short: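 Endogenous human MGL in HeLa cells/homogenates incubated 1 h with test compounds and 300 nM [glycerol-1,3-3H]-oleoyl glycerol. Released 3H-glycerol passing an activated carbon filter counted as activity; screening at 10 μM compound, top IC50 concentration set empirically.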
# human MGL from HeLa cells, sequence (Q99685 whole entry): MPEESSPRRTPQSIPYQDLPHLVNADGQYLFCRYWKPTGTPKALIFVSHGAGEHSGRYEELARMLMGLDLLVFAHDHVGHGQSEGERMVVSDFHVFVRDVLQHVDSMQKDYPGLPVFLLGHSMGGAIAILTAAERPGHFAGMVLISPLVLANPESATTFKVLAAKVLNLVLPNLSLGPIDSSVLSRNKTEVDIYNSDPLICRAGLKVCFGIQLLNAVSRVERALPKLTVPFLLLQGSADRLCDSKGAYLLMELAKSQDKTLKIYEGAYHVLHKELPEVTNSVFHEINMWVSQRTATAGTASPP
row,SMILES,IC50 [µM]
1,"Cc1cc(C(F)(F)F)ccc1OC1CC2(CCN(C(=O)[C@H]3C[C@@](C)(O)C3)CC2)C1 [Example 479, ((1s,3s)-3-Hydroxy-3-methylcyclobutyl)(2-(2-methyl-4-(trifluoromethyl)phenoxy)-7-azaspiro[3.5]nonan-7-yl)methanone]",0.0031
2,"CCOc1cc(C2CCC3(CC2)CN(C(=O)[C@H]2C[C@@](C)(O)C2)C3)cc(C(F)(F)F)c1 [Example 120, (7-(3-Ethoxy-5-(trifluoromethyl)phenyl)-2-azaspiro[3.5]nonan-2-yl)((1s,3s)-3-hydroxy-3-methylcyclobutyl)methanone]",0.141
3,"Cn1ccc2ccc(C(F)(F)C3CC4(C3)CN(C(=O)[C@H]3C[C@@](C)(O)C3)C4)nc21 [Example 317, (6-(Difluoro(1-methyl-1H-pyrrolo[2,3-b]pyridin-6-yl)methyl)-2-azaspiro[3.3]heptan-2-yl)((1s,3s)-3-hydroxy-3-methylcyclobutyl)methanone]",0.069
4,"Cc1ccc(OC2CC3(CCN(C(=O)[C@H]4C[C@@](C)(O)C4)CC3)C2)cc1 [Example 245, ((1s,3s)-3-Hydroxy-3-methylcyclobutyl)(2-(p-tolyloxy)-7-azaspiro[3.5]nonan-7-yl)methanone]",0.329
5,"Cc1nc(CC2CC3(C2)CN(C(=O)[C@H]2C[C@@](C)(O)C2)C3)ccc1C(F)(F)F [Example 278, ((1s,3s)-3-Hydroxy-3-methylcyclobutyl)(6-((6-methyl-5-(trifluoromethyl)pyridin-2-yl)methyl)-2-azaspiro[3.3]heptan-2-yl)methanone]",0.016
6,"COc1ccc(C2CCC3(C2)CN(C(=O)[C@H]2C[C@@](C)(O)C2)C3)cc1C (mixture of isomers) [Example 76, (rac)-((1s,3s)-3-Hydroxy-3-methylcyclobutyl)(6-(4-methoxy-3-methylphenyl)-2-azaspiro[3.4]octan-2-yl)methanone]",0.051
7,"Cc1cc(OC2CCC3(CC2)CN(C(=O)[C@H]2C[C@@](C)(O)C2)C3)ncc1C(F)(F)F [Example 442, ((1s,3s)-3-Hydroxy-3-methylcyclobutyl)(7-((4-methyl-5-(trifluoromethyl)pyridin-2-yl)oxy)-2-azaspiro[3.5]nonan-2-yl)methanone]",0.0096
8,"C[C@]1(O)C[C@@H](C(=O)N2CC3(CC(Cc4cccc(OC(F)(F)F)c4)C3)C2)C1 [Example 194, ((1s,3s)-3-Hydroxy-3-methylcyclobutyl)(6-(3-(trifluoromethoxy)benzyl)-2-azaspiro[3.3]heptan-2-yl)methanone]",0.0049
9,"C[C@]1(O)C[C@@H](C(=O)N2CC3(CCC(c4ccccc4)CC3)C2)C1 [Example 37, ((1s,3s)-3-Hydroxy-3-methylcyclobutyl)(7-phenyl-2-azaspiro[3.5]nonan-2-yl)methanone]",0.058
10,"C[C@]1(O)C[C@@H](C(=O)N2CC3(CCC(c4cccc(-n5cccn5)c4)CC3)C2)C1 [Example 347, (7-(3-(1H-Pyrazol-1-yl)phenyl)-2-azaspiro[3.5]nonan-2-yl)((1s,3s)-3-hydroxy-3-methylcyclobutyl)methanone]",0.056
11,"CCc1ccc(C(F)F)c(OC2CCC3(CC2)CN(C(=O)[C@H]2C[C@@](C)(O)C2)C3)n1 [Example 441, (7-((3-(Difluoromethyl)-6-ethylpyridin-2-yl)oxy)-2-azaspiro[3.5]nonan-2-yl)((1s,3s)-3-hydroxy-3-methylcyclobutyl)methanone]",0.014
12,"C[C@]1(O)C[C@@H](C(=O)N2CC3(CCC(c4ccc(C5CC5)cc4)C3)C2)C1 (mixture of isomers) [Example 49, (rac)-(6-(4-Cyclopropylphenyl)-2-azaspiro[3.4]octan-2-yl)((1s,3s)-3-hydroxy-3-methylcyclobutyl)methanone]",0.014
13,"C[C@]1(O)C[C@@H](C(=O)N2CC3(CC(Cc4ccccc4OC(F)(F)F)C3)C2)C1 [Example 196, ((1s,3s)-3-Hydroxy-3-methylcyclobutyl)(6-(2-(trifluoromethoxy)benzyl)-2-azaspiro[3.3]heptan-2-yl)methanone]",0.0028
14,"C[C@]1(O)C[C@@H](C(=O)N2CC3(CC(Cc4cccc5ccnn45)C3)C2)C1 [Example 285, ((1s,3s)-3-Hydroxy-3-methylcyclobutyl)(6-(pyrazolo[1,5-c]pyridin-7-ylmethyl)-2-azaspiro[3.3]heptan-2-yl)methanone]",0.047
15,"C[C@]1(O)C[C@@H](C(=O)N2CC3(CCC(c4cc5n(n4)CCCC5)C3)C2)C1 (mixture of isomers) [Example 331, (rac)-((1s,3s)-3-Hydroxy-3-methylcyclobutyl)(6-(4,5,6,7-tetrahydropyrazolo[1,5-a]pyridin-2-yl)-2-azaspiro[3.4]octan-2-yl)methanone]",1.02
16,"COc1cc(C2CCC3(CC2)CN(C(=O)[C@H]2C[C@@](C)(O)C2)C3)cc(F)c1C [Example 370, (7-(3-Fluoro-5-methoxy-4-methylphenyl)-2-azaspiro[3.5]nonan-2-yl)((1s,3s)-3-hydroxy-3-methylcyclobutyl)methanone]",0.011

# More lines, in order of falling IC50, values ahead:
row,IC50 [µM],SMILES
1,0.79,"C[C@]1(O)C[C@@H](C(=O)N2CC3(CCC(c4cnc5ccccn45)CC3)C2)C1 [Example 392, ((1s,3s)-3-Hydroxy-3-methylcyclobutyl)(7-(imidazo[1,2-c]pyridin-3-yl)-2-azaspiro[3.5]nonan-2-yl)methanone]"
2,0.722,C[C@]1(O)C[C@@H](C(=O)N2CC3(CCC(c4cccc5nccn45)CC3)C2)C1 [Example 390]
3,0.42,"COc1cccc(C2CCC3(CC2)CN(C(=O)[C@H]2C[C@@](C)(O)C2)C3)n1 [Example 117, ((1s,3s)-3-Hydroxy-3-methylcyclobutyl)(7-(6-methoxypyridin-2-yl)-2-azaspiro[3.5]nonan-2-yl)methanone]"
4,0.292,"Cc1cccc(C)c1C1CCC2(C1)CN(C(=O)[C@H]1C[C@@](C)(O)C1)C2 (mixture of isomers) [Example 98, (rac)-(6-(2,6-Dimethylphenyl)-2-azaspiro[3.4]octan-2-yl)((1s,3s)-3-hydroxy-3-methylcyclobutyl)methanone]"
5,0.226,"C[C@]1(O)C[C@@H](C(=O)N2CC3(CCC(c4cnn5ccccc45)CC3)C2)C1 [Example 394, ((1s,3s)-3-Hydroxy-3-methylcyclobutyl)(7-(pyrazolo[1,5-c]pyridin-3-yl)-2-azaspiro[3.5]nonan-2-yl)methanone]"
6,0.126,"CC(C)(C)c1cccc(C2CC3(CCN(C(=O)[C@H]4C[C@@](C)(O)C4)C3)C2)c1 (stereo partly shown) [Example 89, (2-(3-(tert-Butyl)phenyl)-6-azaspiro[3.4]octan-6-yl)((1s,3s)-3-hydroxy-3-methylcyclobutyl)methanone]"
7,0.082,"CC(C)(C)c1cncc(C2CCC3(CC2)CN(C(=O)[C@H]2C[C@@](C)(O)C2)C3)n1 [Example 377, (7-(6-(tert-Butyl)pyrazin-2-yl)-2-azaspiro[3.5]nonan-2-yl)((1s,3s)-3-hydroxy-3-methylcyclobutyl)methanone]"
8,0.063,"CC(C)(C)c1cccc(OC2CC3(C2)CN(C(=O)[C@H]2C[C@@](C)(O)C2)C3)c1 [Example 244, (6-(3-(tert-Butyl)phenoxy)-2-azaspiro[3.3]heptan-2-yl)((1s,3s)-3-hydroxy-3-methylcyclobutyl)methanone]"
9,0.053,"Cc1ccc(OC2CCC3(CC2)CN(C(=O)[C@H]2C[C@@](C)(O)C2)C3)cc1 [Example 404, ((1s,3s)-3-Hydroxy-3-methylcyclobutyl)(7-(p-tolyloxy)-2-azaspiro[3.5]nonan-2-yl)methanone]"
10,0.042,"COc1cccc(OC2CCC3(CC2)CN(C(=O)[C@H]2C[C@@](C)(O)C2)C3)c1C [Example 409, ((1s,3s)-3-Hydroxy-3-methylcyclobutyl)(7-(3-methoxy-2-methylphenoxy)-2-azaspiro[3.5]nonan-2-yl)methanone]"
11,0.036,"Cc1cc2cnn(C)c2cc1CC1CC2(C1)CN(C(=O)[C@H]1C[C@@](C)(O)C1)C2 [Example 301, (6-((1,5-Dimethyl-1H-indazol-6-yl)methyl)-2-azaspiro[3.3]heptan-2-yl)((1s,3s)-3-hydroxy-3-methylcyclobutyl)methanone]"
12,0.027,"CC(C)c1cccc(OC2CCC3(CC2)CN(C(=O)[C@H]2C[C@@](C)(O)C2)C3)c1 [Example 241, ((1s,3s)-3-Hydroxy-3-methylcyclobutyl)(7-(3-isopropylphenoxy)-2-azaspiro[3.5]nonan-2-yl)methanone]"
13,0.018,"Cc1c(F)cccc1C1CCC2(CC1)CN(C(=O)[C@H]1C[C@@](C)(O)C1)C2 [Example 359, (7-(3-Fluoro-2-methylphenyl)-2-azaspiro[3.5]nonan-2-yl)((1s,3s)-3-hydroxy-3-methylcyclobutyl)methanone]"
14,0.012,"COc1cc(C2CCC3(CC2)CN(C(=O)[C@H]2C[C@@](C)(O)C2)C3)cc(C(F)(F)F)c1 [Example 119, ((1s,3s)-3-Hydroxy-3-methylcyclobutyl)(7-(3-methoxy-5-(trifluoromethyl)phenyl)-2-azaspiro[3.5]nonan-2-yl)methanone]"
15,0.0099,"C[C@]1(O)C[C@@H](C(=O)N2CC3(CCC(Cc4cccc(C5CC5)c4)C3)C2)C1 (mixture of isomers) [Example 201, (rac)-(6-(3-Cyclopropylbenzyl)-2-azaspiro[3.4]octan-2-yl)((1s,3s)-3-hydroxy-3-methylcyclobutyl)methanone]"
16,0.0098,"CC(C)(C)c1cccc([C@@H]2CCC3(C2)CN(C(=O)[C@H]2C[C@@](C)(O)C2)C3)c1 (stereo in doubt) [Example 44, ((*R)-6-(3-(tert-Butyl)phenyl)-2-azaspiro[3.4]octan-2-yl)((1s,3*S)-3-hydroxy-3-methylcyclobutyl)methanone]"
17,0.0037,"Cc1cc(Cl)cnc1OC1CCC2(CC1)CN(C(=O)[C@H]1C[C@@](C)(O)C1)C2 [Example 437, (7-((5-Chloro-3-methylpyridin-2-yl)oxy)-2-azaspiro[3.5]nonan-2-yl)((1s,3s)-3-hydroxy-3-methylcyclobutyl)methanoneo]"
18,0.0017,"Cc1c(CC2CC3(C2)CN(C(=O)[C@H]2C[C@@](C)(O)C2)C3)cccc1C1CC1 [Example 154, (6-(3-Cyclopropyl-2-methylbenzyl)-2-azaspiro[3.3]heptan-2-yl)((1s,3s)-3-hydroxy-3-methylcyclobutyl)methanone]"
